Reference: ChEMBL document CHEMBL2074145, “Active transport of fluorescent P-glycoprotein substrates: evaluation as markers and interaction with inhibitors” (Biochem Biophys Res Commun, 2001)

Key:
[1] = molecular target: T1, ATP-dependent translocase ABCB1 (Homo sapiens, UniProt P08183)
Description: TP_TRANSPORTER: inhibition of LDS-751 efflux in NIH-3T3-G185 cells

[2] = molecular target: T1, ATP-dependent translocase ABCB1; remark: listed apart in the source
Description: TP_TRANSPORTER: inhibition of Daunorubicin efflux in NIH-3T3-G185 cells

[3] = molecular target: T1, ATP-dependent translocase ABCB1; remark: listed apart in the source
Description: TP_TRANSPORTER: inhibition of Rhodamine 123 efflux in NIH-3T3-G185 cells

[4] = molecular target: T1, ATP-dependent translocase ABCB1; remark: listed apart in the source
Description: TP_TRANSPORTER: inhibition of Fluo-3-AM efflux in NIH-3T3-G185 cells

[5] = molecular target: T1, ATP-dependent translocase ABCB1; remark: listed apart in the source
Description: TP_TRANSPORTER: inhibition of Tetramethylrosamine efflux in NIH-3T3-G185 cells

[6] = molecular target: T1, ATP-dependent translocase ABCB1; remark: listed apart in the source
[7] = molecular target: T1, ATP-dependent translocase ABCB1; remark: listed apart in the source
Description: TP_TRANSPORTER: inhibition of Calcein-AM efflux in NIH-3T3-G185 cells

[8] = molecular target: T1, ATP-dependent translocase ABCB1; experiment: TP_TRANSPORTER: inhibition of Daunorubicin, LDS-751 and Rhodamine 123 efflux in NIH-3T3-G185 cells; assay type: functional, cell-based; settings: mouse

T1 sequence (P08183 whole entry): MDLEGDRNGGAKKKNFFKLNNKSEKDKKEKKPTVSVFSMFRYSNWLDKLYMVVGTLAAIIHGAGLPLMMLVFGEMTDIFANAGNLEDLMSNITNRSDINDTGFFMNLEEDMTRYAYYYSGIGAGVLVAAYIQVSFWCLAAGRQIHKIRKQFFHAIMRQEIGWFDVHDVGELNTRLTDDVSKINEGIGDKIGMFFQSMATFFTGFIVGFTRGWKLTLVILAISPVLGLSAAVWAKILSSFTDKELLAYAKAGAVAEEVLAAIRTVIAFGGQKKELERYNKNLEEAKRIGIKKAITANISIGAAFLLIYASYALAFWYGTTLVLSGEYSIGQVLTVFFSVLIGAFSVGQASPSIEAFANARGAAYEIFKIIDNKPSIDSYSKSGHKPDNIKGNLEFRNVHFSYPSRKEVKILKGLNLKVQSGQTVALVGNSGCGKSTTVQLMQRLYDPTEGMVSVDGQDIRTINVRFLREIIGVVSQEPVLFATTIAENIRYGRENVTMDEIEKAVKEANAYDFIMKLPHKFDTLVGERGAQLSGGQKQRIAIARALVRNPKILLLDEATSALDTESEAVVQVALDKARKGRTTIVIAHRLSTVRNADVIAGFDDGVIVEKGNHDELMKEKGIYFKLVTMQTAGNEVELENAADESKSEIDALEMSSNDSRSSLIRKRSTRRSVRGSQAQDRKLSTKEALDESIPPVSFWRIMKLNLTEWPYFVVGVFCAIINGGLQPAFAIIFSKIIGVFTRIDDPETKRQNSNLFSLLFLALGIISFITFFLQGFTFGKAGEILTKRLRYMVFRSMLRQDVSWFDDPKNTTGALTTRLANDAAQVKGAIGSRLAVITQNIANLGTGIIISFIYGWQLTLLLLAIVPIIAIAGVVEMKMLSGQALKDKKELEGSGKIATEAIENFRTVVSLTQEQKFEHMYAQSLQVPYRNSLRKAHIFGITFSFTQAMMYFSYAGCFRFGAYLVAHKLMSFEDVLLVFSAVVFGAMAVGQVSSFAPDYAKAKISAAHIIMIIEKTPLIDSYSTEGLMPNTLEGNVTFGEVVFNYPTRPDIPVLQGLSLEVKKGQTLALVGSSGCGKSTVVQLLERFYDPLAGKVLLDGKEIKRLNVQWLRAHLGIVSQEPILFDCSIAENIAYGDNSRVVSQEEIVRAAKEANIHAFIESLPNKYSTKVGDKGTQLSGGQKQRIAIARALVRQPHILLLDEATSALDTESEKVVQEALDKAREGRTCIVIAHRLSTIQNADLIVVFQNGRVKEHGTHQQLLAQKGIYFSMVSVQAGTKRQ

Compound | IC50 [1] | IC50 [2] | IC50 [3] | IC50 [4] | IC50 [5] | IC50 [6] | IC50 [7] | Activity [8]
CC(C)/N=c1\cc2n(-c3ccc(Cl)cc3)c3ccccc3nc-2cc1Nc1ccc(Cl)cc1 [CLOFAZIMINE] | 1.1 µM | 0.6 µM | 1 µM |  |  |  |  | 
C=C[C@@]1(C)CC(=O)[C@]2(O)[C@@]3(C)[C@@H](O)CCC(C)(C)[C@@H]3[C@H](O)[C@H](OC(C)=O)[C@@]2(C)O1 [COLFORSIN] | 188 µM | 80.2 µM |  |  |  |  |  | 
CC[C@H]1CN2CCc3cc(OC)c(OC)cc3[C@@H]2C[C@@H]1C[C@H]1NCCc2cc(OC)c(OC)cc21 [EMETINE] | 2.4 µM | 9.2 µM | 9.6 µM | 130 µM | 207 µM | 116 µM | 35.1 µM | 
OCCN1CCN(CCCN2c3ccccc3Sc3ccc(C(F)(F)F)cc32)CC1 [FLUPHENAZINE] | 5.7 µM | 6.5 µM | 10.4 µM |  |  |  |  | 
c1ccc([P+](c2ccccc2)(c2ccccc2)c2ccccc2)cc1 [TETRAPHENYLPHOSPHONIUM] | 427 µM | 490 µM |  |  |  |  |  | 

Further lines, results first:

IC50 [1] | IC50 [2] | IC50 [3] | IC50 [4] | IC50 [5] | IC50 [6] | IC50 [7] | Activity [8] | Compound
6 µM | 4.6 µM | 6.6 µM |  |  |  |  |  | COc1ccccc1OCCNCC(O)COc1cccc2[nH]c3ccccc3c12 (stereo unspecified) [CARVEDILOL]
7.2 µM | 3.8 µM | 15.1 µM | 86.7 µM | 23.8 µM | 50.2 µM | 56.1 µM |  | CC[C@H]1OC(=O)[C@H](C)[C@@H](O[C@H]2C[C@@](C)(OC)[C@@H](O)[C@H](C)O2)[C@H](C)[C@@H](O[C@@H]2O[C@H](C)C[C@H](N(C)C)[C@H]2O)[C@](C)(OC)C[C@@H](C)C(=O)[C@H](C)[C@@H](O)[C@]1(C)O [CLARITHROMYCIN]
 |  |  |  |  |  |  | is not an inhibitor [-] | COc1ccc2c(c1)c(CC(=O)O)c(C)n2C(=O)c1ccc(Cl)cc1 [INDOMETHACIN]
4.9 µM | 3.6 µM | 8.6 µM |  |  |  |  |  | COc1ccc(CCNCCCC(C#N)(c2cc(OC)c(OC)c(OC)c2)C(C)C)cc1OC (stereo unspecified) [N-Norgallopamil]
53.9 µM | 54 µM | 70.2 µM |  |  |  |  |  | CC(=O)O[C@H]1C(=O)[C@@]2(C)[C@H]([C@H](OC(=O)c3ccccc3)[C@]3(O)C[C@H](OC(=O)[C@H](O)[C@@H](NC(=O)c4ccccc4)c4ccccc4)C(C)=C1C3(C)C)[C@]1(OC(C)=O)CO[C@@H]1C[C@@H]2O [PACLITAXEL]
2.1 µM | 0.5 µM | 3.9 µM | 2.1 µM | 5.3 µM | 6.1 µM | 2.6 µM |  | COC(=O)[C@H]1[C@H]2C[C@@H]3c4[nH]c5cc(OC)ccc5c4CCN3C[C@H]2C[C@@H](OC(=O)c2cc(OC)c(OC)c(OC)c2)[C@@H]1OC [RESERPINE]
